In US9994554B2, “Barbiturate and thiobarbiturate compounds for use in cancer therapy” (NUHOPE, LLC, priority 2011, dated 2018):
“And” between values parts separate entries of the source, which are not always exact repeats. Identical values can stand only once. Like-named read-outs stand apart in the source and are kept apart here. *1 amine or outer side, *2 acyl side, *3 side chain or, on linkers, in order; H or OH if unused. Where a SMILES comes first, the peptide text is derived from it. Bridges are numbered along the chain shown (N, C = ends). Roman numbers before positions name the chains, in order. [ ]: non-standard residue; d: D form. Actinocin(9to1) = Cc1c2oc3c(C)ccc(C(=O)[*:1])c3nc-2c(C(=O)[*:2])c(N)c1=O; NMeV = CN[C@H](C(=O)O)C(C)C; Sar = CNCC(=O)O

Legend:
[1] = system: U87-MG cells; assay: U87-MG resazurin cell assay (Example 13); assay type: cell-based; conditions: Homo sapiens, U-87 MG
Protocol: U87-MG cells were obtained from the ATCC, LGC Standards (#HTB-14). The cells were screened for mycoplasma (Mycoplasma Experience) and maintained in Biowhittaker Alpha MEM (Lonza #BE02-002F+10% dialyzed US FBS serum (Invitrogen #26400-044), 1% Penstrep (Gibco #15140-122).
Compounds to be tested were transferred into column 1 of a hit plate (96-well PPV Greiner #651201). 20 ul of DMSO was added to columns 2 to 11. The top concentration was 10 mM.
Serial dilution, ten-point one in three dilution curves were created using Perkin Elmer Janus (20 ul clear Robopack disposable tips #6000677 used).
2 ul of each of the compounds was transferred by pre-dispensing into black, clear bottom 96-well CellBIND Corning plates (Fisher #DPS-184-030R) using Platemate 2×2 (ThermoFisher Darts #5506).
200 μl of U87-MG cells were added to columns 1 to 11 at a density of 1000 cells per ml, and media only was dispensed into control column 12 using Wellmate (Small bore tubing set #201-30002).
After 5 days (120 hrs) incubation at 37° C. under 5% CO2 in a humidified incubator, the assay was “stopped” by addition of Resazurin sodium salt at 0.5 mM final concentration (Sigma R7017). The plates were incubated for a further 4 hrs before resorufin readout was taken from a Perkin Elmer EnVision, 550 nm excitation (photo550, Barcode 312), 580 nm emission (M580, Barcode 233), Top Mirror BODIPY (D555, Barcode 405).

[2] = system: NCI-H1299; assay: NCI-H1299 resazurin cell assay (Example 14); assay type: cell-based; conditions: Homo sapiens, read-out: Lung - Non small cell lung carcinoma NCI-H1299 pXC50 (converted)
Protocol: (§1) In this assay, cell lines were tested broadly using the same method as the U87 cell line assay of Example 13. NCI-H1299, CCF-STTG1 and Hep G2 cells were obtained from the ATCC. These cell lines were tested as previously described with the following modifications. NCI-H1299, CCF-STTG1 were maintained in RPMI-1640 Medium plus 10% fetal bovine serum and 1% penicillin/streptomycin, while Hep G2 cells were maintained in Eagle's Minimum Essential Medium plus 10% fetal bovine serum and 1% penicillin/streptomycin. Cells were plated at a density of 1×10^4 per ml except CFF-STTG1 cells which were seeded at a density of 2.5×10^4 per ml.

[3] = system: Hep G2; assay: Hep G2 resazurin cell assay (Example 14); assay type: cell-based; conditions: Homo sapiens, HepG2; read-out: Liver - Hepatocellular carcinoma Hep G2 pXC50 (converted)
Protocol: as §1

[4] = system: CCF-STTG1; assay: CCF-STTG1 resazurin cell assay (Example 14); assay type: cell-based; conditions: Homo sapiens, read-out: Brain - Astrocytoma CCF-STTG1 pXC50 (converted)
Protocol: as §1

[5] = system: SW1088; assay: Cytotoxicity (MTS or SRB assay), SW1088; assay type: cell-based, human
Protocol: Human glioma cells were ordered from American Type Culture Collection (ATCC, Manassas, Va.), and maintained in DMEM with 4×10^−3M L-glutamine, 100 U/ml penicillin, 100 μg/ml streptomycin, and 10% fetal bovine serum (FBS). All experiments were performed at 37° C. in 5% CO2 atmosphere under cell culture conditions. […] Then cells received different dosages of γ-radiation from a ^60Co source GammaCell 220 (Nordion International Inc, Ontario, Canada) or chemotherapeutic agents for another 2-6 days. Cell cytotoxicity assay was determined by MTS [3-(4,5-dimethylthiazol-2-yl)-5-(3-carboxymethoxyphenyl)-2-(4-sulfophenyl)-2H-tetrazolium, inner salt] Cell Proliferation Assay (Promega, Madison, Wis.) or sulforhodamine B (SRB) assay at the end of the exposure period (47, 48).

[6] = system: U87-MG; assay: cells; conditions: Homo sapiens, U-87 MG, read-out: IC50 (μM) U87-MG
Protocol: (§2) Human neuroblastoma cell lines were cultured in Dulbecco's Modified Eagle Medium (DMEM)/F12 media. Human glioma cells were ordered from American Type Culture Collection (ATCC, Manassas, Va.), and maintained in DMEM with 4×10^−3M L-glutamine, 100 U/ml penicillin, 100 μg/ml streptomycin, and 10% fetal bovine serum (FBS). All experiments were performed at 37° C. in 5% CO2 atmosphere under cell culture conditions. Prior to γ-radiation or exposure to chemotherapeutic agents, the glioma cells were plated at a density of 156 to 8,000 cells per well in 96 well plates to account for differences in growth rates, and to obtain similar cell densities for the experimental manipulations, and cultured overnight. Then cells received different dosages of γ-radiation from a ^60Co source GammaCell 220 (Nordion International Inc, Ontario, Canada) or chemotherapeutic agents for another 2-6 days. Cell cytotoxicity assay was determined by MTS [3-(4,5-dimethylthiazol-2-yl)-5-(3-carboxymethoxyphenyl)-2-(4-sulfophenyl)-2H-tetrazolium, inner salt] Cell Proliferation Assay (Promega, Madison, Wis.) or sulforhodamine B (SRB) assay at the end of the exposure period (47, 48).
(§3) Chemotype moiety compounds of CC-I were also tested on the Temodar-resistant CCF-STTG1 and Temodar®-sensitive U87-MG cell lines. The glioma cell culture and treatment is as described above.
(§4) The human glioma CCF-STTG1 cell lines were plated at a density of 5,000 cells per well in 96 well plates under standard DMEM cell culture conditions and then exposed to different concentrations of CC-I, merbarone, or ICRF-193 for 5 days. Merbarone and ICRF-193 are both topoisomerase II inhibitors (55, 56).

[7] = system: U251; assay: Cytotoxicity (MTS or SRB assay), U251; assay type: cell-based; conditions: U-251; human astrocytoma or glioblastoma cell line
Protocol: (§5) Human neuroblastoma cell lines were cultured in Dulbecco's Modified Eagle Medium (DMEM)/F12 media. Human glioma cells were ordered from American Type Culture Collection (ATCC, Manassas, Va.), and maintained in DMEM with 4×10^−3M L-glutamine, 100 U/ml penicillin, 100 μg/ml streptomycin, and 10% fetal bovine serum (FBS). All experiments were performed at 37° C. in 5% CO2 atmosphere under cell culture conditions. Prior to γ-radiation or exposure to chemotherapeutic agents, the glioma cells were plated at a density of 156 to 8,000 cells per well in 96 well plates to account for differences in growth rates, and to obtain similar cell densities for the experimental manipulations, and cultured overnight. […] Cell cytotoxicity assay was determined by MTS [3-(4,5-dimethylthiazol-2-yl)-5-(3-carboxymethoxyphenyl)-2-(4-sulfophenyl)-2H-tetrazolium, inner salt] Cell Proliferation Assay (Promega, Madison, Wis.) or sulforhodamine B (SRB) assay at the end of the exposure period (47, 48).

[8] = system: CCF-STTG1; assay: cells; conditions: for IC50: Homo sapiens, CCF-STTG1, read-out: IC50 (μM) CCF-STTG1
Protocol: as §2
Temodar®-resistant cell lines were used to screen for compounds having the ability to decelerate the growth of, or kill, Temodar®-resistant cells. The efficacy of over 15,000 different compounds in the Drug Discovery Core at Pennsylvania State Hershey Medical Center was tested on Temodar®-resistant human neuroblastoma SH-SY5Y and human glioma CCF-STTG1 cell lines with a colorimetric cytotoxicity assay, the sulforhodamine B (SRB) assay (53).
as §3, §4

[9] = system: WT/SH-SY5Y; assay: Cytotoxicity, WT/SH-SY5Y neuroblastoma; assay type: cell-based; conditions: wild type HFE transfected human neuroblastoma SH-SY5Y
Protocol: as §5

[10] = system: C282Y/SH-SY5Y; assay: cells; assay type: cell-based; conditions: C282Y HFE transfected human neuroblastoma SH-SY5Y
Protocol: as §5

[11] = system: MCF10A; assay: Cytotoxicity, MCF10A; assay type: cell-based, human; conditions: Homo sapiens, MCF-10A; immortalized, non-transformed mammary epithelial cell line
[12] = system: MCF7; assay: Cytotoxicity, MCF7; assay type: cell-based; conditions: MCF7; human breast adenocarcinoma cell line
Protocol: as §5

[13] = system: SVGp12; assay: Cytotoxicity, SVGp12; assay type: cell-based; conditions: SVGp12; SV40 transformed human astrocyte cell line
Protocol: as §5

[14] = system: OVCAR-3; assay: Cytotoxicity, ovarian cancer cells; assay type: cell-based; conditions: OVCAR-3; human ovarian carcinoma cell line
Protocol: To assess the effect of CC-I on the ovarian cancer cells, the cells were cultured overnight at a density of 5,000 to 10,000 cells per well in 96 well plates. Then the cells were treated with different concentrations of CC-I (Formula IV) or Formula V for another 3-6 days before cytotoxicity assay using MTS or SRB assay. The IC50 or LD50, 50% inhibition or lethal dose, of compounds is also determined using statistical software (GraphPad) as a general indicator of toxicity.

[15] = system: CCF-STTG1 cells; assay: FITC-Annexin V/propidium iodide apoptosis assay; assay type: cell-based, human; conditions: CCF-STTG1, at 0.05 μg/ml (39.8 nM)
Protocol: An FITC-labeled Annexin V/propidium iodide apoptosis assay kit (Molecular Probes) was used to determine whether CC-I induces apoptosis in an astrocytoma cell line. […] The percentage of apoptotic cells by the CC-I treatment in CCF-STTG1 cells is from 10.9±0.16% at 5 pig/ml ([…]) to 48.7±0.33% at 10 μg/ml (36.2 μM). By comparison, the positive control, actinomycin D, induced apoptosis in 47.8±0.04% of the cells at 0.05 μg/ml (39.8 nM).

[16] = U87-MG, 5 days (120 hrs) incubation, read-out: Activity Score (Mean pXC50) (converted)
[17] = read-out: Brain - Glioblastoma U87 pXC50 (converted)

Structure (SMILES) | IC50 [1, 16] [µM] | IC50 [1, 17] [µM] | IC50 [2] [µM] | IC50 [3] [µM] | IC50 [4] [µM] | other results
CCN1C(=O)NC(=O)/C(=C\C=C\c2ccco2)C1=O [DDD00124808] | 10 to 31.6 | 10 to 31.6 | 1 to 10 | 10 to 31.6 | 10 to 31.6 | –
Cn1nnc2c(C(N)=O)ncn2c1=O [Temodar ®, Temozolomide, reference compound] | – | 10 to 31.6 | > 100 | > 100 | > 100 | IC50 ([5]; SW1088, human astrocytoma or glioblastoma cell line, read-out: IC50 (μM) SW1088): 29.5 µM; IC50 [6]: 13.6 µM; IC50 [7]: 47.2 µM; IC50 [8]: 306 µM; IC50 [9]: 103 µM; IC50 [10]: 92 µM
CCN1C(=O)C(=C/C=C/c2ccccc2)C(=O)N(CC)C1=S [DDD00124821] | 31.6 to 100 | 31.6 to 100 | 10 to 31.6 | > 100 | 10 to 31.6 | –
O=C1NC(=S)NC(=O)C1=C/C=C/c1ccccc1 [Formula V] | – | – | – | – | – | IC50 ([5]; Homo sapiens, SW1088, read-out: IC50 (μM) SW1088): 1.2 µM; LD50 ([5]; SW-1088 astrocytoma cells): 0.3 μg/ml and 1.2 μM; IC50 [6]: 1.8 µM; IC50 [7]: 2.5 µM; IC50 [8]: 3 µM; cytotoxicity to CCF-STTG1 cell lines (in words) ([8]; Temodar-resistant CCF-STTG1): greatest toxicity; IC50 [11]: 1.7 µM; IC50 [12]: 3.2 µM; IC50 [13]: 1.6 µM; IC50 [14]: 4.3 µM
O=C1NC(=O)C(=C/C=C/c2ccco2)C(=O)N1 [DDD00124807] | 10 to 31.6 | 10 to 31.6 | 1 to 10 | 10 to 31.6 | 10 to 31.6 | –
CCN1C(=O)C(=C/C=C/c2ccco2)C(=O)N(CC)C1=O [DDD00124802] | 10 to 31.6 | 31.6 to 100 | 1 to 10 | 10 to 31.6 | 31.6 to 100 | –
O=C1NC(=S)NC(=O)C1=C/C=C/c1ccco1 [DDD00124818] | 10 to 31.6 | 10 to 31.6 | 1 to 10 | > 100 | 10 to 31.6 | –
CCN1C(=O)C(=C/C=C/c2ccccc2)C(=O)N(CC)C1=O [DDD00125643] | 1 to 10 | 1 to 10 | – | 10 to 31.6 | 1 to 10 | –
Cc1c2oc3c(C)ccc(C(=O)N[C@@H]4C(=O)N[C@H](C(C)C)C(=O)N5CCC[C@H]5C(=O)N(C)CC(=O)N(C)[C@@H](C(C)C)C(=O)O[C@@H]4C)c3nc-2c(C(=O)N[C@@H]2C(=O)N[C@H](C(C)C)C(=O)N3CCC[C@H]3C(=O)N(C)CC(=O)N(C)[C@@H](C(C)C)C(=O)O[C@@H]2C)c(N)c1=O [actinomycin D, reference compound] (I: T[dV]P[Sar][NMeV] / II: T[dV]P[Sar][NMeV]; ester I:1-I:C, II:1-II:C; linker I:N-II:N via Actinocin(9to1)) | – | – | – | – | – | percentage of apoptotic cells [15]: 47.8±0.04%
CCN1C(=O)NC(=O)/C(=C\C=C\c2ccccc2)C1=O [DDD00124809] | 1 to 10 | 1 to 10 | – | 1 to 10 | 1 to 10 | –
